In patent US8846933B2, “N-link hydroxamic acid derivatives useful as antibacterial agents” (Pfizer Inc., priority 2009, dated 2014):

Legend:
[1] = test system: Pseudomonas aeruginosa UI-18: Wild-type (PA-7); test: MIC determination (CLSI), strain PA-7; type: cell-based; details: strain PA-7, unit assumed
How it was run: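 Strain tested was P. aeruginosa UI-18, a wild-type isolate labelled PA-7. Minimum inhibitory concentrations followed CLSI dilution methodology for aerobically growing bacteria (M7-A7, M100-S18).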

[2] = test system: Escherichia coli EC-1: VOGEL, mouse virulent; test: MIC determination (CLSI), strain EC-1; type: cell-based; details: strain EC-1, unit assumed
How it was run: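 The mouse-virulent VOGEL isolate of E. coli, EC-1, served as test organism. Minimum inhibitory concentration was measured by CLSI dilution methodology (M7-A7; M100-S18 standards).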

[3] = generated in the same manner as in Table 4

Row | Compound | PA-7 (MIC) [1, 3] | EC-1 (MIC) [2, 3] | PA-7 (MIC) [1] | EC-1 (MIC) [2]
1 | Cc1ccc(-c2ccn(CCC(C)(C(=O)NO)S(C)(=O)=O)c(=O)c2)cc1N (centres unmarked) [Example 115, 4-[4-(3-amino-4-methylphenyl)-2-oxopyridin-1(2H)-yl]-N-hydroxy-2-methyl-2-(methylsulfonyl)butanamide] | 16 µg/mL | 64 µg/mL |  | 
2 | Cc1ccc(C#N)c(Oc2ccc(-c3ccn(CC[C@](C)(C(=O)NO)S(C)(=O)=O)c(=O)c3)cc2)n1 [Example 438, (2R)-4-[4-{4-[(3-cyano-6-methylpyridin-2-yl)oxy]phenyl}-2-oxopyridin-1(2H)-yl]-N-hydroxy-2-methyl-2-(methylsulfonyl)butanamide] |  |  | 8 µg/mL | 4 µg/mL
3 | C[C@@](CCn1ccc(-c2ccc3cc(N4CCC(O)CC4)ccc3c2)cc1=O)(C(=O)NO)S(C)(=O)=O [Example 381, (2R)-N-hydroxy-4-{4-[6-(4-hydroxypiperidin-1-yl)-2-naphthyl]-2-oxopyridin-1(2H)-yl}-2-methyl-2-(methylsulfonyl)butanamide] |  |  | 16 µg/mL | 1 µg/mL
4 | CC(CCn1ccc(-c2ccncc2)cc1=O)(C(=O)NO)S(C)(=O)=O (centres unmarked) [Example 218, N-hydroxy-2-methyl-2-(methylsulfonyl)-4-(2-oxo-4,4′-bipyridin-1(2H)-yl)butanamide] |  |  | 64 µg/mL | > 64 µg/mL
5 | CC(CCn1ccc(-c2ccc(F)cc2)cc1=O)(C(=O)NO)S(C)(=O)=O (centres unmarked) [Example 192, 4-[4-(4-fluorophenyl)-2-oxopyridin-1(2H)-yl]-N-hydroxy-2-methyl-2-(methylsulfonyl)butanamide] |  |  | 2 µg/mL | 8 µg/mL
6 | COc1ccc2ccc(-c3ccn(CCC(C)(C(=O)NO)S(C)(=O)=O)c(=O)c3)cc2c1 (centres unmarked) [Example 288, N-hydroxy-4-[4-(7-methoxy-2-naphthyl)-2-oxopyridin-1(2H)-yl]-2-methyl-2-(methylsulfonyl)butanamide] |  |  | 4 µg/mL | 0.125 µg/mL
7 | CC(C)(C)NC(=O)c1cc(-c2ccn(CCC(C)(C(=O)NO)S(C)(=O)=O)c(=O)c2)ccc1F (centres unmarked) [Example 211, N-tert-butyl-2-fluoro-5-{1-[4-(hydroxyamino)-3-methyl-3-(methylsulfonyl)-4-oxobutyl]-2-oxo-1,2-dihydropyridin-4-yl}benzamide] |  |  | > 64 µg/mL | 64 µg/mL
8 | C[C@@](CCn1ccc(-c2ccc(Oc3ccccn3)cc2)cc1=O)(C(=O)NO)S(C)(=O)=O [Example 436, (2R)-N-hydroxy-2-methyl-2-(methylsulfonyl)-4-{2-oxo-4-[4-(pyridin-2-yloxy)phenyl]pyridin-1(2H)-yl}butanamide] |  |  | 2 µg/mL | 0.5 µg/mL
9 | C[C@@](CCn1ccc(-c2ccc(OC(F)F)cc2)cc1=O)(C(=O)NO)S(C)(=O)=O [Example 338, (2R)-4-{4-[4-(difluoromethoxy)phenyl]-2-oxopyridin-1(2H)-yl}-N-hydroxy-2-methyl-2-(methylsulfonyl)butanamide] |  |  | 0.5 µg/mL | 0.5 µg/mL
10 | C[C@@](CCn1ccc(-c2cc(F)ccc2Cl)cc1=O)(C(=O)NO)S(C)(=O)=O [Example 392, (2R)-4-[4-(2-chloro-5-fluorophenyl)-2-oxopyridin-1(2H)-yl]-N-hydroxy-2-methyl-2-(methylsulfonyl)butanamide] |  |  | 8 µg/mL | 16 µg/mL
11 | COc1cc(OCCCO)ccc1-c1ccn(CCC(C)(C(=O)NO)S(C)(=O)=O)c(=O)c1 (centres unmarked) [Example 253, N-hydroxy-4-{4-[4-(3-hydroxypropoxy)-2-methoxyphenyl]-2-oxopyridin-1(2H)-yl}-2-methyl-2-(methylsulfonyl)butanamide] |  |  | > 64 µg/mL | 16 µg/mL
12 | CCCCc1ccc(-c2ccn(CC[C@](C)(C(=O)NO)S(C)(=O)=O)c(=O)c2)cc1 [Example 464, (2R)-4-[4-(4-butylphenyl)-2-oxopyridin-1(2H)-yl]-N-hydroxy-2-methyl-2-(methylsulfonyl)butanamide] |  |  | 1 µg/mL | 0.03 µg/mL
13 | CC(CCn1ccc(-c2cnc3ccccc3c2)cc1=O)(C(=O)NO)S(C)(=O)=O (centres unmarked) [Example 125, N-hydroxy-2-methyl-2-(methylsulfonyl)-4-(2-oxo-4-quinolin-3-ylpyridin-1(2H)-yl)butanamide] | 32 µg/mL | 16 µg/mL |  | 
14 | CC(CCn1ccc(-c2ccccc2O)cc1=O)(C(=O)NO)S(C)(=O)=O (centres unmarked) [Example 213, N-hydroxy-4-[4-(2-hydroxyphenyl)-2-oxopyridin-1(2H)-yl]-2-methyl-2-(methylsulfonyl)butanamide] |  |  | > 64 µg/mL | > 64 µg/mL
15 | C[C@@](CCn1ccc(-c2ccc(-c3ccc(C#N)nc3)cc2)cc1=O)(C(=O)NO)S(C)(=O)=O [Example 415] |  |  | 2 µg/mL | 1 µg/mL
16 | CC(CCn1ccc(-c2cc(Cl)c(OCCO)cc2Cl)cc1=O)(C(=O)NO)S(C)(=O)=O (centres unmarked) [Example 244, 4-{4-[2,5-dichloro-4-(2-hydroxyethoxy)phenyl]-2-oxopyridin-1(2H)-yl}-N-hydroxy-2-methyl-2-(methylsulfonyl)butanamide] |  |  | > 64 µg/mL | 32 µg/mL

Row | Compound | PA-7 (MIC) [1, 3] | EC-1 (MIC) [2, 3] | PA-7 (MIC) [1] | EC-1 (MIC) [2]
17 | COc1ncc(-c2ccc(-c3ccn(CC[C@](C)(C(=O)NO)S(C)(=O)=O)c(=O)c3)cc2)cn1 [Example 410, (2R)-N-hydroxy-4-{4-[4-(2-methoxypyrimidin-5-yl)phenyl]-2-oxopyridin-1(2H)-yl}-2-methyl-2-(methylsulfonyl)butanamide] |  |  | 1 µg/mL | 0.5 µg/mL
18 | C[C@@](CCn1ccc(-c2c(F)cccc2F)cc1=O)(C(=O)NO)S(C)(=O)=O [Example 353] |  |  | 1 µg/mL | 4 µg/mL
19 | CN(C)S(=O)(=O)c1ccc(-c2ccn(CCC(C)(C(=O)NO)S(C)(=O)=O)c(=O)c2)cc1 (centres unmarked) [Example 106, 4-[4-{4-[(dimethylamino)sulfonyl]phenyl}-2-oxopyridin-1(2H)-yl]-N-hydroxy-2-methyl-2-(methylsulfonyl)butanamide] | 64 µg/mL | > 64 µg/mL |  | 
20 | CC(CCn1ccc(-c2ccc(OCCCN3CCOCC3)cc2Cl)cc1=O)(C(=O)NO)S(C)(=O)=O (centres unmarked) [Example 225, 4-{4-[2-chloro-4-(3-morpholin-4-ylpropoxy)phenyl]-2-oxopyridin-1(2H)-yl}-N-hydroxy-2-methyl-2-(methylsulfonyl)butanamide] |  |  | 16 µg/mL | 8 µg/mL
21 | COc1cccc(-c2ccn(CCC(C)(C(=O)NO)S(C)(=O)=O)c(=O)c2)c1 (centres unmarked) [Example 206, N-hydroxy-4-[4-(3-methoxyphenyl)-2-oxopyridin-1(2H)-yl]-2-methyl-2-(methylsulfonyl)butanamide] |  |  | 4 µg/mL | 4 µg/mL
22 | Cc1cc(OCCCn2cncn2)ccc1-c1ccn(CCC(C)(C(=O)NO)S(C)(=O)=O)c(=O)c1 (centres unmarked) [Example 289, N-hydroxy-2-methyl-2-(methylsulfonyl)-4-[4-{2-methyl-4-[3-(1H-1,2,4-triazol-1-yl)propoxy]phenyl}-2-oxopyridin-1(2H)-yl]butanamide] |  |  | 32 µg/mL | 32 µg/mL
23 | CC(C)(C)NC(=O)c1cncc(-c2ccn(CCC(C)(C(=O)NO)S(C)(=O)=O)c(=O)c2)c1 (centres unmarked) [Example 154, N-tert-butyl-1′-[4-(hydroxyamino)-3-methyl-3-(methylsulfonyl)-4-oxobutyl]-2′-oxo-1′,2′-dihydro-3,4′-bipyridine-5-carboxamide] | > 64 µg/mL | > 64 µg/mL |  | 
24 | CC1(O)CCC(Oc2ccc(-c3ccn(CC[C@](C)(C(=O)NO)S(C)(=O)=O)c(=O)c3)cc2F)CC1 (stereo partly drawn) [Example 349, (2R)-4-[4-{3-fluoro-4-[(4-hydroxy-4-methylcyclohexyl)oxy]phenyl}-2-oxopyridin-1(2H)-yl]-N-hydroxy-2-methyl-2-(methylsulfonyl)butanamide] |  |  | 4 µg/mL | 0.5 µg/mL
25 | CC(CCn1ccc(-c2ccc([N+](=O)[O-])cc2)cc1=O)(C(=O)NO)S(C)(=O)=O (centres unmarked) [Example 101, N-hydroxy-2-methyl-2-(methylsulfonyl)-4-[4-(4-nitrophenyl)-2-oxopyridin-1(2H)-yl]butanamide] | 4 µg/mL | 8 µg/mL |  | 
26 | Cc1cccc(-c2ccc(-c3ccn(CC[C@](C)(C(=O)NO)S(C)(=O)=O)c(=O)c3)cc2)n1 [Example 422, (2R)-N-hydroxy-2-methyl-4-{4-[4-(6-methylpyridin-2-yl)phenyl]-2-oxopyridin-1(2H)-yl}-2-(methylsulfonyl)butanamide] |  |  | 4 µg/mL | 0.5 µg/mL
27 | Cc1cnc(-c2ccc(-c3ccn(CC[C@](C)(C(=O)NO)S(C)(=O)=O)c(=O)c3)cc2)cn1 [Example 457, (2R)-N-hydroxy-2-methyl-4-{4-[4-(5-methylpyrazin-2-yl)phenyl]-2-oxopyridin-1(2H)-yl}-2-(methylsulfonyl)butanamide] |  |  | 2 µg/mL | 0.5 µg/mL
28 | CC(CCn1ccc(-c2ccc(O)c(F)c2)cc1=O)(C(=O)NO)S(C)(=O)=O (centres unmarked) [Example 70, 4-[4-(3-fluoro-4-hydroxyphenyl)-2-oxopyridin-1(2H)-yl]-N-hydroxy-2-methyl-2-(methylsulfonyl)butanamide] | > 64 µg/mL | > 64 µg/mL |  | 
29 | CC(C#N)Sc1cccc(-c2ccn(CC[C@](C)(C(=O)NO)S(C)(=O)=O)c(=O)c2)c1 (some centres unmarked) [Example 475] |  |  | 8 µg/mL | 8 µg/mL
30 | C[C@@](CCn1ccc(-c2ccc3ncc(F)cc3c2)cc1=O)(C(=O)NO)S(C)(=O)=O [Example 316, (2R)-4-[4-(3-fluoroquinolin-6-yl)-2-oxopyridin-1(2H)-yl]-N-hydroxy-2-methyl-2-(methylsulfonyl)butanamide] |  |  | 2 µg/mL | 4 µg/mL
31 | CC(CCn1ccc(-c2cccnc2)cc1=O)(C(=O)NO)S(C)(=O)=O (centres unmarked) [Example 219, N-hydroxy-2-methyl-2-(methylsulfonyl)-4-(2′-oxo-3,4′-bipyridin-1′(2′H)-yl)butanamide] |  |  | > 64 µg/mL | > 64 µg/mL
